Measurements from patent US12077503B2, “Substituted cyclic amides and their use as herbicides” (FMC CORPORATION, priority 2015, dated 2024).

Legend:
Format in all cases: in vivo
[1] = tested on: pigweed (Amaranthus retroflexus); assay: Test A preemergence; conditions: Amaranthus retroflexus, pre-emergence, 240 h, 0 to 100 scale where 0 is no effect and 100 is complete control, read-out: Pigweed plant response rating
[2] = tested on: barnyardgrass (Echinochloa crus-galli); assay: Test A preemergence; conditions: Echinochloa crus-galli, pre-emergence, 240 h, 0 to 100 scale where 0 is no effect and 100 is complete control, read-out: Barnyardgrass plant response rating
How it was run: (§1)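 Greenhouse, ~10 d after spray; visual injury vs untreated controls, 0 = no effect, 100 = complete control. Preemergence: directed soil spray over planted seeds. Postemergence: plants 2–10 cm, 1–2 leaf stage. Loam/sand blend. Compound in non-phytotoxic solvent with surfactant.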

[3] = tested on: giant foxtail (Setaria faberii); assay: Test A preemergence; conditions: Setaria faberi, pre-emergence, 240 h, 0 to 100 scale where 0 is no effect and 100 is complete control, read-out: Foxtail, Giant plant response rating
How it was run: as §1

Kochia (Kochia scoparia) [4] = assay: Test A preemergence; conditions: Bassia scoparia, pre-emergence, 240 h, 0 to 100 scale where 0 is no effect and 100 is complete control, read-out: Kochia plant response rating
How it was run: as §1

[5] = tested on: ragweed (common ragweed, Ambrosia elatior); assay: Test A preemergence; conditions: Ambrosia artemisiifolia, pre-emergence, 240 h, 0 to 100 scale where 0 is no effect and 100 is complete control, read-out: Ragweed plant response rating
How it was run: as §1

[6] = tested on: ryegrass, Italian (Italian ryegrass, Lolium multiflorum); assay: Test A preemergence; conditions: Lolium multiflorum, pre-emergence, 240 h, 0 to 100 scale where 0 is no effect and 100 is complete control, read-out: Ryegrass, Italian plant response rating
How it was run: as §1

[7] = tested on: pigweed (Amaranthus retroflexus); assay: Test A postemergence; conditions: Amaranthus retroflexus, post-emergence, 240 h
How it was run: as §1

[8] = tested on: barnyardgrass (Echinochloa crus-galli); assay: Test A postemergence; conditions: Echinochloa crus-galli, post-emergence, 240 h
How it was run: as §1

[9] = tested on: giant foxtail (Setaria faberii); assay: Test A postemergence; conditions: Setaria faberi, post-emergence, 240 h
How it was run: as §1

[10] = tested on: Galium (catchweed bedstraw, Galium aparine); assay: Test A postemergence; conditions: Galium, post-emergence, 240 h
How it was run: as §1

corn (Zea mays) = assay: Test A postemergence; conditions: Zea mays, post-emergence, 240 h
How it was run: as §1

Kochia (Kochia scoparia) [11] = assay: Test A postemergence; conditions: Bassia scoparia, post-emergence, 240 h
How it was run: as §1

[12] = tested on: ragweed (common ragweed, Ambrosia elatior); assay: Test A postemergence; conditions: Ambrosia artemisiifolia, post-emergence, 240 h
How it was run: as §1

[13] = tested on: wheat (Triticum aestivum); assay: Test A postemergence; conditions: Triticum aestivum, post-emergence, 240 h
How it was run: as §1

[14] = tested on: blackgrass (Alopecurus myosuroides); assay: Test A postemergence; conditions: Alopecurus myosuroides, post-emergence, 240 h
How it was run: as §1

[15] = tested on: ryegrass, Italian (Italian ryegrass, Lolium multiflorum); assay: Test A postemergence; conditions: Lolium multiflorum, post-emergence, 240 h
How it was run: as §1

[16] = tested on: barnyardgrass (Echinochloa crus-galli); assay: Test B flooded paddy test; conditions: Echinochloa crus-galli, 250 g ai/ha, Flood; 0 to 100 scale where 0 is no effect and 100 is complete control; read-out: Barnyardgrass plant response rating
How it was run: (§2)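 2-leaf plants; pots flooded 3 cm over soil; cpd added to paddy water; depth held; greenhouse 13–15 d; visual rating vs controls, 0 = no effect, 100 = complete control.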

[17] = tested on: sedge, umbrella (small-flower umbrella sedge, Cyperus difformis); assay: Test B flooded paddy test; conditions: Cyperus difformis, 250 g ai/ha, Flood; 0 to 100 scale where 0 is no effect and 100 is complete control; read-out: Sedge, Umbrella plant response rating
How it was run: as §2

rice (Oryra sativa) = assay: Test B flooded paddy test; conditions: Oryza sativa, 250 g ai/ha, Flood; 0 to 100 scale where 0 is no effect and 100 is complete control; read-out: Rice plant response rating
How it was run: as §2

[18] = tested on: ducksalad (Heteranthera limosa); assay: Test B flooded paddy test; conditions: Heteranthera limosa, 250 g ai/ha, Flood; 0 to 100 scale where 0 is no effect and 100 is complete control; read-out: Ducksalad plant response rating
How it was run: as §2

[19] = 125 g ai/ha, preemergence, approx. 10 d

With `CN1C[C@H](c2ccc(F)c(Oc3ccccc3)c2)[C@@H](C(=O)Nc2ccccc2F)C1=O` [Compound 1141] the pest or weed control at 31 g/ha ([1]; 31 g ai/ha, Preemergence) was 30%, the pest or weed control at 125 g/ha [1, 19] was 60% and the pest or weed control at 31 g/ha ([2]; 31 g ai/ha, Preemergence) was 30%. It also gave a pest or weed control at 125 g/ha [2, 19] of 80%, a pest or weed control at 31 g/ha ([3]; 31 g ai/ha, Preemergence) of 80% and a pest or weed control at 125 g/ha [3, 19] of 90%. The pest or weed control at 31 g/ha (Kochia (Kochia scoparia) [4]; 31 g ai/ha, Preemergence) was 0%, the pest or weed control at 125 g/ha (Kochia (Kochia scoparia) [4]; [19]) was 0% and the pest or weed control at 31 g/ha ([5]; 31 g ai/ha, Preemergence) was 0%. For the same compound, the pest or weed control at 125 g/ha [5, 19] was 0%, the pest or weed control at 31 g/ha ([6]; 31 g ai/ha, Preemergence) was 0% and the pest or weed control at 125 g/ha [6, 19] was 40%. It also gave a pest or weed control at 125 g/ha ([7]; 125 g ai/ha, postemergence, visual injury vs untreated controls after approx. 10 d, 0 = no effect, 100 = complete control, read-out: Pigweed plant response rating (0 to 100 scale)) of 50%, a pest or weed control at 31 g/ha ([7]; Postemergence, 31 g ai/ha, visual injury after approx. 10 d, 0 to 100 scale, 0 no effect, 100 complete control, read-out: Plant response rating, Pigweed) of 30% and a pest or weed control at 125 g/ha ([8]; 125 g ai/ha, postemergence, visual injury on 0 to 100 scale (0 no effect, 100 complete control), approx. 10 d, read-out: Barnyardgrass plant response rating) of 90%. For the same compound, the pest or weed control at 31 g/ha ([8]; Postemergence, 31 g ai/ha, visual injury after approx. 10 d, 0 to 100 scale, 0 no effect, 100 complete control, read-out: Plant response rating, Barnyardgrass) was 60%, the pest or weed control at 125 g/ha ([9]; 125 g ai/ha, postemergence, visual injury on 0 to 100 scale (0 no effect, 100 complete control), approx. 10 d, read-out: Foxtail, Giant plant response rating) was 90% and the pest or weed control at 31 g/ha ([9]; Postemergence, 31 g ai/ha, visual injury after approx. 10 d, 0 to 100 scale, 0 no effect, 100 complete control, read-out: Plant response rating, Foxtail, Giant) was 60%. It also gave a pest or weed control at 125 g/ha ([10]; 125 g ai/ha, postemergence, visual injury on 0 to 100 scale (0 no effect, 100 complete control), approx. 10 d, read-out: Galium plant response rating) of 90%, a pest or weed control at 31 g/ha ([10]; Postemergence, 31 g ai/ha, visual injury after approx. 10 d, 0 to 100 scale, 0 no effect, 100 complete control, read-out: Plant response rating, Galium) of 60% and a plant injury at 125 g/ha (corn (Zea mays); 125 g ai/ha, postemergence, visual injury on 0 to 100 scale (0 no effect, 100 complete control), approx. 10 d, read-out: Corn plant response rating) of 20%. It also gave a Corn plant response rating (crop injury, 0 = no effect, 100 = complete kill) at 31 g/ha (corn (Zea mays); Postemergence, 31 g ai/ha, visual injury after approx. 10 d, 0 to 100 scale, 0 no effect, 100 complete control) of 0%, a pest or weed control at 125 g/ha (Kochia (Kochia scoparia) [11]; 125 g ai/ha, postemergence, visual injury on 0 to 100 scale (0 no effect, 100 complete control), approx. 10 d, read-out: Kochia plant response rating) of 30% and a pest or weed control at 31 g/ha (Kochia (Kochia scoparia) [11]; Postemergence, 31 g ai/ha, visual injury after approx. 10 d, 0 to 100 scale, 0 no effect, 100 complete control, read-out: Plant response rating, Kochia) of 0%. The pest or weed control at 125 g/ha ([12]; 125 g ai/ha, postemergence, visual injury vs untreated controls after approx. 10 d, 0 = no effect, 100 = complete control, read-out: Ragweed plant response rating (0 to 100 scale)) was 30%, the pest or weed control at 31 g/ha ([12]; Postemergence, 31 g ai/ha, visual injury after approx. 10 d, 0 to 100 scale, 0 no effect, 100 complete control, read-out: Plant response rating, Ragweed) was 0% and the plant injury at 125 g/ha ([13]; 125 g ai/ha, postemergence, visual injury vs untreated controls after approx. 10 d, 0 = no effect, 100 = complete control, read-out: Wheat plant response rating (0 to 100 scale)) was 20%. The plant injury at 31 g/ha ([13]; Postemergence, 31 g ai/ha, visual injury after approx. 10 d, 0 to 100 scale, 0 no effect, 100 complete control, read-out: Plant response rating, Wheat) was 0%, the pest or weed control at 125 g/ha ([14]; 125 g ai/ha, postemergence, visual injury on 0 to 100 scale (0 no effect, 100 complete control), approx. 10 d, read-out: Blackgrass plant response rating) was 30% and the pest or weed control at 31 g/ha ([14]; Postemergence, 31 g ai/ha, visual injury after approx. 10 d, 0 to 100 scale, 0 no effect, 100 complete control, read-out: Plant response rating, Blackgrass) was 0%. The pest or weed control at 125 g/ha ([15]; 125 g ai/ha, postemergence, visual injury vs untreated controls after approx. 10 d, 0 = no effect, 100 = complete control, read-out: Ryegrass, Italian plant response rating (0 to 100 scale)) was 50%, the pest or weed control at 31 g/ha ([15]; Postemergence, 31 g ai/ha, visual injury after approx. 10 d, 0 to 100 scale, 0 no effect, 100 complete control, read-out: Plant response rating, Ryegrass, Italian) was 20% and the pest or weed control at 250 g/ha [16] was 50%. For the same compound, the pest or weed control at 250 g/ha [17] was 0%, the pest or weed control at 250 g/ha (rice (Oryra sativa)) was 0% and the pest or weed control at 250 g/ha [18] was 90%.
